From patent publication US9856232B1, “Dihydropyrimidinone derivatives” (KING SAUD UNIVERSITY, priority 2017, dated 2018)
Marks after values point to notes of the source that are not given here.

Legend:
[1] = system: Gastric lesions induced by necrotizing agents (80% ethanol, 0.2 mol/L NaOH or 25% NaCl); test: Gastric lesions induced by necrotizing agents (cytoprotection); type: in vivo, Albino Wistar rats; conditions: i.p, 30 min before necrotizing agent, mean ± SE
[2] = system: malondialdehyde in stomach tissue, induced by 80% ethanol; test: Determination of malondialdehyde (MDA); type: in vivo, Albino Wistar rats; conditions: mean ± SE
Procedure: (§1) Albino Wistar rats of either sex, approximately the same age, weighing 150 to 200 g and fed on a diet of standard chow were used in this study. They were randomly divided into experimental groups of six rats each. Compounds (N-1 to N-18) 12.5, 25, and 50 mg/kg were given orally in the anti-ulcer studies and intraperitoneally for gastric secretion evaluation. The rats were sacrificed, and the stomachs removed and opened along the greater curvature, After washing with saline, the gastric lesions were quantified by a person unaware of the treatments. The animal study protocol was approved by the Research and Ethics Committee of the Experimental Animal Care Society, College of Pharmacy, King Saud University, Riyadh, Saudi Arabia.
Determination of malondialdehyde (MDA): The animals were sacrificed 1 hour after ethanol administration. The stomachs were removed and each was homogenized in 0.15 mol/L KCl (at 4° C.) in a Potter-Elvehjem type C homogenizer to give a 10% w/v homogenate. Aliquots of homogenate 1 mL in volume were incubated at 37° C. for 3 hours in a metabolic shaker. Then 1 mL of 10% aqueous TCA was added and mixed. The mixture was then centrifuged at 800 g for 10 minutes. One milliliter of the supernatant was removed and mixed with 1 mL of 0.67% w/v thiobarbituric acid in water and placed in a boiling water bath for 10 minutes. The mixture was cooled and diluted with 1 mL distilled water. The absorbance of the solution was then read at 535 nm. The content of malondialdehyde (nmol/g wet tissue) (index of the magnitude of lipid peroxidation) was then calculated, by reference to a standard curve of malondialdehyde solution. Table 7 provides the effect of compounds on the levels of MDA, NP_SH, and total protein in stomach tissue induced by 80% ethanol (mean±SE).

[3] = system: total protein in stomach tissue, induced by 80% ethanol; test: Total protein in stomach tissue; type: in vivo, Albino Wistar rats; conditions: mean ± SE
in vivo = conditions: mouse
Text: (§2) At the end of the study period, expired animals were counted for the calculation of LD50. The following arithmetic method from Karber (Arch. Exptl. Pathol. Pharmakol, […], 162, 480-483) was used for the determination of LD50: LD50=LD100−Σ×(a×b)/n
(§3) wherein n=total number of animals in a group; a=the difference between two successive doses of administered extract/substance; b=the average number of dead animals in two successive doses; and LD100=lethal dose causing the 100% death of all test animals.
(§4) Table 8 provides the LD50 values of the compounds determined by the Karber method.

mouse = test: in vivo; conditions: 24 h
Text: as §2, §3, §4

[4] = system: Hypothermic restraint stress-induced intraluminal bleeding and gastric lesion; test: Hypothermic restraint stress-induced ulcers; type: in vivo, Albino Wistar rats; design: Gastric Lesion Ulcer Index: scale not given here; conditions: hypothermic restraint 3 h, mean ± SE
[5] = system: Gastric lesions induced by 80% ethanol; test: Gastric lesions induced by ethanol (ulcer index by severity scores); type: in vivo, Albino Wistar rats; conditions: Rattus norvegicus, po, vs 80% EtOH group, read-out: Gastric lesions induced by 80% ethanol, % change; for inhibition in vivo at 12.5 mg/kg: compound 12.5 mg/kg; for inhibition in vivo at 25 mg/kg: compound 25 mg/kg; for inhibition in vivo at 50 mg/kg: compound 50 mg/kg
Procedure: as §1
Gastric lesions induced by ethanol: Albino rats of either sex weighing between (150-200 g) are divided into groups. The animals were fasted for 24 hours with free access to water. Animals were given test drugs or standard drug. One hour later 1 mL/200 gm of 80% ethanol is administered orally to each animal. The animals were anaesthetized 1 hour latter with anesthetic ether and stomach was incised along the greater curvature and ulceration was scored. The number of ulcers and the length of each ulcer were measured. Ulcer index was calculated using severity scores. The mucosal damage was examined by means of a magnifying glass. For each stomach the mucosal damage was assessed according to the following scoring system: 0.5 redness; 1.0 spot ulcers; 1.5 hemorrhagic streaks; 2.0 ulcers<3, but≦5; 3.0 ulcers>5. Table 1 provides the effect of compounds on gastric lesions induced by 80% ethanol (mean±SE).

[6] = system: Indomethacin-induced gastric mucosal lesions; test: Gastric lesions induced by Indomethacin; type: in vivo, Albino Wistar rats; design: scale not given here; conditions: i.p, 30 min before Indomethacin 30 mg/kg, mean ± SE
Text: Albino Wistar rats of either sex, approximately the same age, weighing 150 to 200 g and fed on a diet of standard chow were used in this study. They were randomly divided into experimental groups of six rats each. […] The rats were sacrificed, and the stomachs removed and opened along the greater curvature, After washing with saline, the gastric lesions were quantified by a person unaware of the treatments. The animal study protocol was approved by the Research and Ethics Committee of the Experimental Animal Care Society, College of Pharmacy, King Saud University, Riyadh, Saudi Arabia.
Gastric lesions induced by Indomethacin: Indomethacin was suspended in 1.0% carboxymethylcellulose (CMC) in water (6 mg/mL) and administered orally to the 36 hour fasted rats at a dose of 30 mg/kg body weight. Control rats were treated similarly with an equivalent amount of vehicle. […] The animals were sacrificed 6 hours after treatment. The stomachs were excised, rinsed with normal saline and examined for ulceration. Table 3 provides the effect of compounds on Indomethacin-induced gastric mucosal lesions (mean±SE).

[7] = dose 12.5, 80% ethanol-treated rats
[8] = dose 25, 80% ethanol-treated rats
[9] = dose 50, 80% ethanol-treated rats

SMILES | Ulcer Index, 0.2 mol/L NaOH ([1]; 12.5 mg/kg) | Ulcer Index, 25% NaCl ([1]; 12.5 mg/kg) | Ulcer Index, 80% EtOH ([1]; 12.5 mg/kg) | Ulcer Index, 0.2 mol/L NaOH ([1]; 25 mg/kg) | Ulcer Index, 25% NaCl ([1]; 25 mg/kg) | Ulcer Index, 80% EtOH ([1]; 25 mg/kg) | Ulcer Index, 0.2 mol/L NaOH ([1]; 50 mg/kg) | Ulcer Index, 25% NaCl ([1]; 50 mg/kg) | Ulcer Index, 80% EtOH ([1]; 50 mg/kg) | MDA [2, 7] | MDA [2, 8] | MDA [2, 9] | Total Protein [3, 7] | Total Protein [3, 8] | Total Protein [3, 9] | Gastric Lesion Ulcer Index ([4]; 12.5 mg/kg) | Intraluminal Bleeding Score ([4]; 12.5 mg/kg) | Gastric Lesion Ulcer Index ([4]; 50 mg/kg) | Intraluminal Bleeding Score ([4]; 50 mg/kg) | inhibition in vivo at 12.5 mg/kg [5] | also measured
COc1ccccc1C1NC(=O)NC=C1C(=O)c1ccc(N2CCCCC2)cc1 (stereo not shown) [Compound N-8, 4-(2-Methoxyphenyl)-5-[4-(piperidin-1-yl)benzoyl]-3,4-dihydropyrimidin-2(1H)-one] | 6.66 ± 0.33 | 6.00 ± 0.25 | 7.00 ± 0.36 | 5.33 ± 0.71 | 5.00 ± 0.44 | 6.50 ± 0.42 | 3.83 ± 0.30 | 3.33 ± 0.30 | 5.83 ± 0.30 | 6.63 ± 0.26^b nmol/g | 4.83 ± 0.24***^b nmol/g | 3.75 ± 0.07***^b nmol/g | 45.90 ± 1.14^b g/L | 55.88 ± 1.71*^b g/L | 66.26 ± 1.47 g/L | 29.83 ± 1.50 | 3.50 ± 0.42 | 18.66 ± 0.55 | 2.50 ± 0.42 | 33.3% | LD50 at 24 h (in vivo): 55.5 mg/kg; Dead (of 10 animals) (mouse; 5 mg/kg): 0; Dead (of 10 animals) (mouse; 25 mg/kg): 2; Dead (of 10 animals) (mouse; 50 mg/kg): 6; Dead (of 10 animals) (mouse; 100 mg/kg): 9; Dead (of 10 animals) (mouse; 200 mg/kg): 10; Dead (of 10 animals) (mouse; 300 mg/kg): 10; Gastric Lesion Ulcer Index ([4]; 25 mg/kg): 27.66 ± 1.60; Intraluminal Bleeding Score ([4]; 25 mg/kg): 3.33 ± 0.21; inhibition in vivo at 25 mg/kg [5]: 50%; inhibition in vivo at 50 mg/kg [5]: 53.3%; Ulcer Index, indomethacin-induced gastric mucosal lesions ([6]; 12.5 mg/kg): 33.00 ± 1.52; Ulcer Index, indomethacin-induced gastric mucosal lesions ([6]; 25 mg/kg): 29.50 ± 1.58; Ulcer Index, indomethacin-induced gastric mucosal lesions ([6]; 50 mg/kg): 28.66 ± 1.45
CN(C)c1ccc(C2NC(=O)NC=C2C(=O)c2ccc(N3CCCCC3)cc2)cc1 (stereo not shown) [Compound N-11, 4-(4-Dimethylaminophenyl)-5-[4-(piperidin-1-yl)benzoyl]-3,4-dihydropyrimidin-2(1H)-one] | 6.33 ± 0.42 | 6.00 ± 0.36 | 7.16 ± 0.30 | 3.66 ± 0.21 | 4.83 ± 0.40 | 6.16 ± 0.30 | 3.66 ± 0.33 | 3.83 ± 0.30 | 4.83 ± 0.30 | 5.16 ± 0.22***^b nmol/g | 3.99 ± 0.17***^b nmol/g | 3.36 ± 0.08***^b nmol/g | 53.89 ± 1.48*^b g/L | 64.27 ± 2.08***^b g/L | 72.25 ± 1.43***^b g/L | 29.83 ± 1.51 | 3.66 ± 0.33 | 21.00 ± 0.51 | 2.00 ± 0.36 | 22.5% | Gastric Lesion Ulcer Index ([4]; 75 mg/kg): 29.00 ± 1.21; Intraluminal Bleeding Score ([4]; 75 mg/kg): 2.66 ± 0.33; inhibition in vivo at 25 mg/kg [5]: 48.3%; inhibition in vivo at 50 mg/kg [5]: 61.2%; Ulcer Index, indomethacin-induced gastric mucosal lesions ([6]; 12.5 mg/kg): 33.00 ± 1.03; Ulcer Index, indomethacin-induced gastric mucosal lesions ([6]; 25 mg/kg): 30.66 ± 1.28; Ulcer Index, indomethacin-induced gastric mucosal lesions ([6]; 50 mg/kg): 28.31 ± 1.78
COc1ccc(C2NC(=O)NC=C2C(=O)c2ccc(N3CCCCC3)cc2)c(OC)c1OC (stereo not shown) [Compound N-15, 4-(2,3,4-Trimethoxyphenyl)-5-[4-(piperidin-1-yl)benzoyl]-3,4-dihydropyrimidin-2(1H)-one] | 3.50 ± 0.22 | 3.66 ± 0.33 | 4.66 ± 0.33 | 2.16 ± 0.30 | 2.66 ± 0.33 | 2.66 ± 0.33 | 1.33 ± 0.42 | 1.66 ± 0.33 | 2.16 ± 0.30 | 3.51 ± 0.08***^b nmol/g | 2.72 ± 0.10***^b nmol/g | 1.90 ± 0.06***^b nmol/g | 71.45 ± 1.43*^b g/L | 81.43 ± 3.65***^b g/L | 96.60 ± 1.18***^b g/L | 25.66 ± 1.08 | 2.16 ± 0.30 | 12.33 ± 0.84 | 1.33 ± 0.33 | 35.4% | LD50 at 24 h (in vivo): 116 mg/kg; Dead (of 10 animals) (mouse; 5 mg/kg): 0; Dead (of 10 animals) (mouse; 25 mg/kg): 1; Dead (of 10 animals) (mouse; 50 mg/kg): 3; Dead (of 10 animals) (mouse; 100 mg/kg): 4; Dead (of 10 animals) (mouse; 200 mg/kg): 9; Dead (of 10 animals) (mouse; 300 mg/kg): 10; Gastric Lesion Ulcer Index ([4]; 25 mg/kg): 16.66 ± 0.33; Intraluminal Bleeding Score ([4]; 25 mg/kg): 1.66 ± 0.21; inhibition in vivo at 25 mg/kg [5]: 54.8%; inhibition in vivo at 50 mg/kg [5]: 67.7%; Ulcer Index, indomethacin-induced gastric mucosal lesions ([6]; 12.5 mg/kg): 26.33 ± 1.30; Ulcer Index, indomethacin-induced gastric mucosal lesions ([6]; 50 mg/kg): 14.50 ± 1.64
